Measurements taken from patent US12270041B2, “ROP—deficient plants having high water use efficiency” (RAMOT AT TEL-AVIV UNIVERSITY LTD., priority 2019, dated 2025).

Tests used:
[1] = test system: stomata of M82 and rop9 mutant cotyledons; assay: Measurements of stomata aperture (width/length) in excised cotyledons; format: cell-based, Tomato (S. lycopersicum)
Protocol: […] assays were carried out as previously described (Puli, M. R. et al., J Exp Bot 63, 1349-1356, 2012). with the following modifications. Cotyledons were excised from M82 or rop9 mutants (10-15 days after sowing in soil) and were transferred immediately to stomatal opening buffer (10 mM MES-KOH, pH 7.0, 50 mM KCl) with or without ABA and treated for 3 h under light (110 to 120 μE m^−2 s^−1). Mock-treated controls were treated with 0.1% vol/vol ethanol. After 3 h, the abaxial epidermis of cotyledons was affixed to a glass slide with Telesis 5 silicone adhesive (Premiere Products) and bright-field images were taken with a Zeiss-LSM 780 NLO confocal microscope. For each biological replicate, width and length of 30 to 40 stomatal apertures were measured using Image J.

[2] = test system: ROS levels in guard cells; assay: ROS measurements in guard cells (H2DCF fluorescence); format: cell-based, Tomato (S. lycopersicum)
Protocol: Reactive oxygen species (ROS) levels in guard cells were monitored using a fluorescence-based assay with 2′,7′-dichlorofluorescien diacetate (H2DCF-DA). Abaxial epidermises of cotyledons were mounted on microscope slides with medical adhesive Telesis V and loaded with stomatal opening buffer with 50 μM H2DCF-DA for 30 min. Excess H2DCF-DA was removed by washing with water, and samples were loaded with 0.1% ethanol (mock) or 10 μM ABA in opening buffer. After 15 min, fluorescence images were collected using a Zeiss-LSM 780 NLO confocal microscope. Fluorescence measured from about thirty stomata of each biological replicate was determined using Image J.

[3] = test system: P5CS1 and RAB18 expression; assay: QPCR of ABA-responsive genes; format: cell-based, Tomato (S. lycopersicum); settings: M82, rop9-1 and rop9-4 cotyledons, 50 μM ABA
Protocol: For expression of ABA induced genes, total RNA was extracted from mock-treated or ABA-treated cotyledons or from 2- to 3-week-old soil-grown plants using the RNeasy Plant Mini Kit (Qiagen). cDNAs were prepared using the High-capacity cDNA Reverse Transcription Kit (Applied Biosystems). Oligonucleotide primers for tubulin, P5CS1, and RAB18 were identical to those used by Nir et al. (2017, ibid). Expression was normalized to tubulin. Gene expression of the M82 mock-treated samples was set to 1, and then remaining samples were calculated proportionately. Data are the means (±SE) of three independent biological replicates.

[4] = test system: M82 and rop9 mutant seedlings; assay: Primary root elongation assay; format: in vivo, Tomato (S. lycopersicum); settings: 1 or 5 μM ABA, 48 h
Protocol: Seven-day-old M82 and rop9 mutant seedlings were transferred to 0.5×MS+1% agar plates (without sucrose) supplemented with 0.1% ethanol (mock) or 1 or 5 μM ABA in 0.1% ethanol, and root lengths were marked. Root elongation was measured after 48 h.

[5] = test system: ROP activity in guard cells; assay: Distribution of GFP-ICR1ΔN ROP activity probe in guard cells; format: cell-based; settings: Arabidopsis guard cells, 10 μM ABA, one hour
Protocol: Expression of GFP-ICR1ΔN was induced in 7-days old Arabidopsis seedlings with 5 μM β-estradiol dissolved in 99.5% DMSO. After 24 h of induction plants were treated with control (0.5× Murashige Skoog (MS) medium supplemented with 0.1% ETOH (control) or with 10 μM ABA dissolved in 0.1% ETOH. Analysis of GFP-ICR1ΔN distribution was carried out 1 h after treatments with control or ABA supplemented media using Zeiss LSM 780-NLO confocal microscope by excitation at 488 nm and emission spectrum at 501-546 nm using 40× and 63× water objectives. Image analyses were performed with ZEN 2012 Digital Imaging and Image J.
To follow the regulation of ROP activity in guard cells a fluorescent probe which is specifically expressed in guard cells was generated. The probe consists GFP fused to the […] C-terminal residues of ROP effector ICR1 (between residues 171-344) and was designated GFP-ICRΔN. […] To prevent possible steric hindrance of the ICRΔN moiety by GFP, a flexible linker consisting of 3 repeats of (Gly)4Ser (3×GGGGS) sequence were cloned between the ICRΔN and the GFP moieties. To prevent negative effects that could occur due to long-term expression of a ROP effector, the expression of the probe was induced by estradiol under regulation of the ROP11 promoter. […] The distribution of the probe between the membrane and cytoplasm reflected the degree of ROP activation. […]

M82 seeds = assay: Seed germination assay on ABA-supplemented medium; format: in vivo, Tomato (S. lycopersicum); settings: 5 μM ABA, seven days
Protocol: Seeds of M82 and rop9 mutant plants (50 seeds per genotype) were surface sterilized for 2 min in ethanol followed by 20 min in 3% sodium hypochlorite, washed with excess of water (˜100 ml) and sown on 0.5×MS+1% agar plates (without sucrose) supplemented with 0.1% ethanol (mock) or 1 or 5 μM ABA (in 0.1% ethanol). Seeds were kept at 4° C. for 48 h for […] and moved to 25° C. in the dark for germination. The percentage of seeds germinated were determined after seven days.

SMILES	stomata aperture (width/length) ([1]; M82 stomata, 5 μM DPI)	stomata aperture (width/length) ([1]; rop9-1 and rop9-4 stomata, 5 μM DPI)	H2DCF signal ([2]; rop9-1 and rop9-4 guard cells treated with ABA, 5 μM DPI)	expression of P5CS1 and RAB18 [3]	stomata aperture (width/length) ([1]; M82, rop9-1 and rop9-4 cells, 10 μM ABA (positive control))	stomata aperture (width/length) ([1]; M82 cotyledons, 1 or 10 μM ABA, 3 h under light)	root elongation [4]	distribution of the probe between plasma membrane and cytoplasm [5]	H2DCF signal ([2]; M82 guard cells, 10 μM ABA, 15 min)	H2DCF signal ([2]; rop9-1 and rop9-4 guard cells, 10 μM ABA, 15 min)	seed germination (M82 seeds)
c1ccc2c(c1)[I+]c1ccccc1-2 [DPI, Diphenyleneiodonium chloride]	had no effect	induced opening	decreased the H2DCF signal								
CC1=CC(=O)CC(C)(C)[C@@]1(O)/C=C/C(C)=C\C(=O)O [ABA, Abscisic acid]				induced to a similar extent by ABA in both wild-type and mutant leaves	expected closing of stomata were observed	induced stomata closure	inhibited to a similar extent in M82 and the rop9 mutants	significant shift of the probe from the plasma membrane to the cytoplasm	induced significant enhancement	significantly reduced the signal	significantly inhibited
